Assay results taken from patent publication US20090209565A1, “THERAPEUTIC AGENT FOR INFLAMMATORY BOWEL DISEASE” (priority 2006, published 2009).

Experiments:
[1] = system: DSS-induced IBD model animals; experiment: Actions of improving the clinical conditions in DSS-induced IBD model; type: in vivo, mice; conditions: for Change in length of the large intestine (Ratio to the no treatment group, %): C57BL/6N mice, 3% DSS Day 0-4, drug Day 4-10, determined Day 11, control 73.4
Description: This test was performed according to the method described in PEDIATRIC RESEARCH, Vol. 53, No. 1, 143 to 147, 2003. In particular, mice (6-week-old, C57BL/6N Jcl, CLEA Japan, Inc.) were divided into groups of eight mice each such that average body weight was the same in each group on Day 0. […] Determination was made on the next day of the last administration of each drug (Day 11). As the evaluation index, the length of the large intestine and the rate of body weight change from the first day of the test (Day 0) to the last day of the test (Day 11) were measured.

SD rats = conditions: 2000 mg/kg single oral dose in 0.5% HPMC, five male and five female SD rats
Description: 2000 mg/kg of Compound (1) was suspended in 0.5% HPMC solution, and orally administered at a single dose of 10 mL/kg to five male and five female SD rats (6-week-old).

[2] = system: intestinal epithelial cells; experiment: Inhibition of apoptosis of large intestinal epithelial cells in TNBS-induced colitis; type: in vivo, mouse; conditions: TNBS-induced colitis large intestine, Giemsa staining, 1000 cells per segment; TNBS alone 40.0±3.0%
Description: Large intestine affected by TNBS-induced colitis was subjected to Giemsa staining to stain the nucleus, and apoptosis of the intestinal epithelial cells was investigated (FIG. 3). Cells showing cell shrinkage or nucleus fragmentation were taken as apoptoic cells. 1000 cells in each segment were observed under the microscope, and the ratio of apoptotic cells (the apoptosis induction rate) was calculated (FIG. 4).

[3] = Compound 100, prednisolone 5, 5-ASA 100 mg/kg/day

Structure (SMILES)	Change in length of the large intestine (Ratio to the no treatment group, %) [1, 3] [%]	weight loss (rate of body weight change from first day to determination day) ([1]; Day 0 to Day 11, printed as loss, prednisolone 5, 5-ASA 100 mg/kg/day, control loss 1.7±1.8) [%]	Rate of body weight change (%, Mean ± SE) ([1]; Day 0 to Day 11, Compound 100, prednisolone 5, 5-ASA 100 mg/kg/day, control −1.7 ± 1.8, no treatment 3.7 ± 1.5) [%]	death (SD rats)	ratio of apoptotic cells (apoptosis induction rate) [2] [%]
Nc1ccc(O)c(C(=O)O)c1 [Compound 5-ASA, 5-aminosalycilic acid]	80.3	5.0±0.3	−5.0 ± 0.3		
Cl.N=C1CCCN1Cc1[nH]c(=O)[nH]c(=O)c1Cl [Compound (1), 5-chloro-6-(2-iminopyrrolidin-1-yl)methyl-2,4(1H,3H)-pyrimidinedione hydrochloride]	88.6			no case of death	
N=C1CCCN1Cc1[nH]c(=O)[nH]c(=O)c1Cl [Compound (I), 5-chloro-6-(2-iminopyrrolidin-1-yl)methyl-2,4(1H,3H)-pyrimidinedione]	88.6				26.0±5.0
C[C@]12C=CC(=O)C=C1CC[C@@H]1[C@@H]2[C@@H](O)C[C@@]2(C)[C@H]1CC[C@]2(O)C(=O)CO [Prednisolone, prednisolone]	93.2				
